For `CSc1cc(C)nc(SC)c1NC(=O)CN1CCN(CCSc2nc3cc(C(F)(F)F)ccc3o2)CC1` [Example 4, 2-[4-[2-(5-trifluoromethylbenzoxazol-2-ylthio)ethyl]piperazin-1-yl]-N-[2,4-bis(methylthio)-6-methylpyridin-3-yl]acetamide], the melting point (as a rule, the temperature, or range, at which the solid turns liquid) lay within 103 to 104 °C. Consider `Cc1cc(OCC(F)(F)F)c(NC(=O)CN2CCN(CCSc3nc4cc(F)c(F)cc4[nH]3)CC2)c(OCC(F)(F)F)n1` [Example 5, 2-[4-[2-(5,6-difluorobenzimidazol-2-ylthio)ethyl]piperazin-1-yl]-N-[2,4-bis(2,2,2-trifluoroethoxy)-6-methylpyridin-3-yl]acetamide], for which the melting point lay within 191 to 192 °C. Next, `Cc1cc(OCC(F)(F)F)c(NC(=O)CN2CCN(CCSc3nc4ccccc4o3)CC2)c(OCC(F)(F)F)n1` [Example 7, 2-[4-[2-(benzoxazol-2-ylthio)ethyl]piperazin-1-yl]-N-[2,4-bis(2,2,2-trifluoroethoxy)-6-methylpyridin-3-yl]acetamide]: 141 to 142 °C; `Cc1cc(C(F)(F)F)c(NC(=O)CN2CCN(CCSc3nc4ccccc4s3)CC2)c(C)n1` [Example 8, 2-[4-[2-(benzothiazol-2-ylthio)ethyl]piperazin-1-yl]-N-[2,6-dimethyl-4-trifluoromethyl-pyridin-3-yl]acetamide]: 107 to 108 °C.
